The record followed here is ChEMBL document CHEMBL4765481, “Sialyltransferase Inhibitors Suppress Breast Cancer Metastasis” (J Med Chem, 2021).

Data set [1] can be described thus: Toxicity in human MDA-MB-231 cells assessed as cell survival at >60 uM relative to control. The class given is cell-based. Particulars: read-out: Survival.
For data set [2], the target named is T1, Beta-galactoside alpha-2,6-sialyltransferase 1 (Homo sapiens, UniProt P15907).
T1 sequence (P15907 whole entry): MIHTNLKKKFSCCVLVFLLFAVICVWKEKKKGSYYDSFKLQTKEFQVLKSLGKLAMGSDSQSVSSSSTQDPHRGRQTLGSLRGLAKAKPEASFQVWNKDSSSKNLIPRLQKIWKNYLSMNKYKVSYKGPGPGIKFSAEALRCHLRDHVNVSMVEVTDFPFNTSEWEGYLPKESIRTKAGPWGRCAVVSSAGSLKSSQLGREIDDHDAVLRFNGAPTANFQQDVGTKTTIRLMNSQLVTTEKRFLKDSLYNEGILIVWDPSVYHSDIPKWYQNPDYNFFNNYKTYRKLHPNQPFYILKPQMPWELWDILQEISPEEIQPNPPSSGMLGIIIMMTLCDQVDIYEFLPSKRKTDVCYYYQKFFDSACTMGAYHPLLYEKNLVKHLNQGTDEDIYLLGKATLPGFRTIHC
Briefly: Inhibition of human alpha-2,6-ST6GAL1 assessed as reduction in sialylated-product formation using Gal-beta1-4GlcNac and CMP-NeuSAc incubated for 15 mins by reverse-phase HPLC analysis.

The species entered for data set [3] is Danio rerio. As to the kind of experiment: Antiangiogenic activity in transgenic zebrafish embryos assessed as suppression of caudal vein plexus formation at 20 uM measured at 30 hrs postfertilization by fluorescence microscopy. The class given is functional, organism-based.
Data set [4] can be described thus: Selectivity ratio of IC50 for of inhibition of rat alpha-2,3-O-ST3GALI to IC50 for inhibition of human alpha-2,6-ST6GAL1.
Data set [5] has as its system MDA-MB-231. Briefly: Inhibition of serum-induced cell migration of human MDA-MB-231 cells at 20 uM incubated for 16 hrs by Boyden chamber assay. It counts as functional, cell-based.
Data set [6] relates to MDA-MB-231. Briefly: Inhibition of Sialyltransferase in human MDA-MB-231 cells assessed as reduction in IKKalpha/beta Ser176/180 phosphorylation level at 10 to 20 uM incubated for 48 hrs by immunoblot analysis. The class given is cell-based. Particulars: dose 10-20 µM. Background: Immunoblotting shows a protein as a band on a membrane.
Data set [7] concerns MDA-MB-231. As to the kind of experiment: Inhibition of Sialyltransferase in human MDA-MB-231 cells assessed as reduction in NFkappaB Ser536 phosphorylation level at 10 to 20 uM incubated for 48 hrs by immunoblot analysis. It counts as cell-based. The following applies: dose 10-20 µM.
The species named for data set [8] is Danio rerio. Briefly: Antiangiogenic activity in transgenic zebrafish embryos assessed as suppression of intersegmental vessels formation at 20 uM measured at 30 hrs postfertilization by fluorescence microscopy. It counts as functional, organism-based.
Data set [9] relates to MDA-MB-231. As to the kind of experiment: Antitumor activity against luciferase-tagged human MDA-MB-231 cells xenografted in BALB/c mouse assessed as induction of delayed lung metastasis at 10 mg/kg/3 days, ip measured after 8 weeks. It counts as functional, organism-based. (In general: In xenograft studies the graft and the host belong to different species.)
Data set [10] concerns MDA-MB-231. As to the kind of experiment: Inhibition of Sialyltransferase in human MDA-MB-231 cells assessed as suppression of sialylation of integrin subunit beta1/beta3/beta4/beta5 at 10 to 20 um after 48 hrs by Western blot analysis. It counts as cell-based. Particulars: dose 10-20 µM.
A short description of data set [11]: Toxicity in transgenic zebrafish embryos assessed as effect on gross morphology at 20 uM measured at 30 hrs postfertilization by fluorescence microscopy. Also on record: species or system Danio rerio. The following applies: in vivo.
Data set [12] relates to MDA-MB-231. Briefly: Antitumor activity against luciferase-tagged human MDA-MB-231 cells xenografted in BALB/c mouse assessed as induction of tumor suppression at 10 mg/kg/3 days, ip measured after 8 weeks. The class given is functional, organism-based.
Data set [13] concerns MDA-MB-231. Briefly: Inhibition of serum-induced cell migration of human MDA-MB-231 cells incubated for 16 hrs by Boyden chamber assay. The class given is functional, cell-based. The following applies: MDA-MB-231, 16 h.
The test system of data set [14] is MDA-MB-231. Briefly: Inhibition of Sialyltransferase in human MDA-MB-231 cells assessed as decrease p-talin-1 association with integrins beta1 and beta 3 after 48 hrs by immunofluorescence and coimmunoprecipitation assay. The class given is cell-based.
A short description of data set [15]: Toxicity in BALB/c mouse xenografted with luciferase-tagged human MDA-MB-231 cells at 10 mg/kg/3 days, ip measured after 8 weeks by blood tests. It counts as organism-based. Particulars: in vivo, 1344 h.
Data set [16] concerns the target T2, CMP-N-acetylneuraminate-beta-1,4-galactoside alpha-2,3-sialyltransferase (Rattus norvegicus, UniProt Q02734).
T2 sequence (Q02734 whole entry): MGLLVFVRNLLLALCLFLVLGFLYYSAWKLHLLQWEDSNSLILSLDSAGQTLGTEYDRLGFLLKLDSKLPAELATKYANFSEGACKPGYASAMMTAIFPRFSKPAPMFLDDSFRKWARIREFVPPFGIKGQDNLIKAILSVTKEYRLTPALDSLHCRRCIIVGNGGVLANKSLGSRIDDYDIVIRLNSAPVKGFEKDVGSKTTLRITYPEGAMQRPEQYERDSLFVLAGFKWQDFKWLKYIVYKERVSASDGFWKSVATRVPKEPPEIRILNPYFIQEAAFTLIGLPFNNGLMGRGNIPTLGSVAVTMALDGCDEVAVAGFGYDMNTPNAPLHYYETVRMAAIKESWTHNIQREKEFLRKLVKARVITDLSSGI
As to the kind of experiment: Inhibition of rat alpha-2,3-N-ST3GALIII assessed as reduction in sialylated-product formation using Gal-beta1-4Glc and CMP-NeuSAc incubated for 1.5 hrs by reverse-phase HPLC analysis.

The target in data set [17] is T3, Sialyltransferase ST3Gal-I (Rattus norvegicus) (UniProt Q6H8N0).
T3 sequence (whole entry): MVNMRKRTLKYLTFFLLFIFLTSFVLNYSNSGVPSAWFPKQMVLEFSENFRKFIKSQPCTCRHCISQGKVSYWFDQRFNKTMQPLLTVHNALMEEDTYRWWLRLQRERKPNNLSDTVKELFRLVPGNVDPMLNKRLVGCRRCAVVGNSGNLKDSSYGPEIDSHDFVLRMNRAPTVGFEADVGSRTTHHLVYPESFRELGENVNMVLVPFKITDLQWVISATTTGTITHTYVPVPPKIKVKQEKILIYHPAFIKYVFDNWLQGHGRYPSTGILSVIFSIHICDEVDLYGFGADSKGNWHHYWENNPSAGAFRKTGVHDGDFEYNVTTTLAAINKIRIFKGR
As to the kind of experiment: Inhibition of rat alpha-2,3-O-ST3GALI assessed as reduction in sialylated-product formation at 1 mM using p-nitrophenyl T-antigen and CMP-NeuSAc incubated for 15 mins by reverse-phase HPLC analysis relative to control.

Data set [18] concerns MDA-MB-231. As to the kind of experiment: Inhibition of Sialyltransferase in human MDA-MB-231 cells assessed as reduction in FAK Tyr925 phosphorylation level at 10 to 20 uM incubated for 48 hrs by immunoblot analysis. The following applies: dose 10-20 µM. It counts as cell-based.
The nature of data set [19]: Toxicity in BALB/c mouse xenografted with luciferase-tagged human MDA-MB-231 cells assessed as effect on body weight at 10 mg/kg/3 days, ip measured after 8 weeks. It counts as organism-based. The following applies: in vivo, 1344 h.
Data set [20] relates to MDA-MB-231. Briefly: Inhibition of Sialyltransferase in human MDA-MB-231 cells assessed as reduction in paxillin Tyr118 phosphorylation level at 10 to 20 uM incubated for 48 hrs by immunoblot analysis. The following applies: dose 10-20 µM. The class given is cell-based.
For data set [21], the system named is MDA-MB-231. As to the kind of experiment: Antiangiogenesis activity against luciferase-tagged human MDA-MB-231 cells xenografted in BALB/c mouse assessed as reduction in cell proliferation by measuring Ki67 expression at 10 mg/kg/3 days, ip measured after 8 weeks by immunostaining. It counts as functional, organism-based.
The species entered for the next data set is Rattus norvegicus. Briefly: Selectivity ratio of inhibition of rat alpha-2,3-O-ST3GALI at 500 uM to IC50 for inhibition of rat alpha-2,3-N-ST3GALIII.

The structures appear in SMILES notation. The source made the active and inactive calls. No cut-off for these calls is given here.

With `C[C@H](CCC(=O)OCCOCCOCCN=[N+]=[N-])[C@H]1CC[C@H]2[C@@H]3CC[C@@H]4C[C@H](OC(=O)[C@H](CC(=O)O)Nc5ccc([N+](=O)[O-])c6nonc56)CC[C@]4(C)[C@H]3CC[C@]12C`, in data set [1], the viability is > 90%. Moreover, the IC50 came out at 3.6 µM in data set [2], 10.6 µM in the data set on MDA-MB-231 [13] and 1.74 µM in data set [16]. Moreover, the result in the data set filed under Danio rerio [3], in the data set listed under Danio rerio [8], in the data set with MDA-MB-231 [9], with MDA-MB-231 [12] and in the data set on MDA-MB-231 [21] was Active. Further, the Ratio IC50 in [4] is > 139. The inhibition result with MDA-MB-231 [5], with MDA-MB-231 [6], in the data set with MDA-MB-231 [7] and with MDA-MB-231 [10] was “Active” each time. The Activity entry in data set [11], in data set [15] and in data set [19] was “Non-Toxic” each time. The inhibition entry in the data set on MDA-MB-231 [14] was “Dose-dependent effect”; in [17], 60%; with MDA-MB-231 [18], “Dose-dependent effect”; with MDA-MB-231 [20] it was “Dose-dependent effect”. Moreover, the Selectivity ratio in the data set listed under Rattus norvegicus is > 287.

A word on the IC50: it is the point on the concentration scale where inhibition reaches its midpoint. By inhibition is commonly meant the share of the control response that was lost under treatment.
